Results on three compounds are retold here after patent EP4431115A1, “COMPOUND PHARMACEUTICAL PREPARATION CONTAINING OIL COMPONENT COMPRISING POLYOXYETHYLENE STRUCTURE” (CHUGAI SEIYAKU KABUSHIKI KAISHA, priority 2022, dated 2023).

Values after ≈ are worked out from the molar mass of the structure shown. Bridge positions count the residues as written; N and C are the ends. Square brackets hold non-standard residues; d marks the D form. Peptide text beside a SMILES is read from it. * marks the point of attachment. hPhe(3,5-F2-4-CF3) = N[C@@H](CCc1cc(F)c(C(F)(F)F)c(F)c1)C(=O)O; hPhe(3-Cl-4-CF3) = N[C@@H](CCc1ccc(C(F)(F)F)c(Cl)c1)C(=O)O; NMeGly(cPent) = CN[C@H](C(=O)O)C1CCCC1; NMeCha = CN[C@@H](CC1CCCCC1)C(=O)O; Hyp = O=C(O)[C@@H]1C[C@@H](O)CN1; NMeF = CN[C@@H](Cc1ccccc1)C(=O)O; NMeD = CN[C@@H](CC(=O)O)C(=O)O; NMeL = CN[C@@H](CC(C)C)C(=O)O; NMeA = CN[C@@H](C)C(=O)O; Piperidide = C1CCN(*)CC1; Ac5c = NC1(C(=O)O)CCCC1; Aze = O=C(O)[C@@H]1CCN1; Sar = CNCC(=O)O; tBu = CC(C)(C)*

This data set is described as follows: Evaluation of solubility of cyclic peptide compound in phosphate buffer (Example 3-3). In kind it is physicochemical. The settings on record: 50 mM phosphate buffer solution pH 6.5, 37°C, 22 to 24 hours. How it is done:
Evaluation of the solubility of the cyclic peptide compound was performed. To lyophilized powder of the compound, a 50 mM phosphate buffer solution (PPB: Phosphate buffer, pH 6.5) was added, and after shaking (at 37°C, 1800 rpm, for 22 to 24 hours), the mixed solution was filtered through a filter, and the compound concentration of the filtrate was measured by LC/MS/MS. Solubility was calculated from the measured compound concentration. The solubilities of the compounds 3, 4, 6, 7, and 8 were 11 µg/mL, 1 µg/mL, 1 µg/mL, 15 µg/mL, and 5 µg/mL, respectively.

One may read the Solubility as the dissolved amount per volume that the medium holds. With `CC(C)C[C@@H]1NC(=O)[C@H](Cc2ccccc2)N(C)C(=O)[C@H](COC(C)(C)C)NC(=O)[C@H](Cc2ccccc2)N(C)C(=O)[C@H](C)N(C)C(=O)[C@H](CC(C)C)N(C)C(=O)[C@@H](C)NC(=O)C[C@@H](C(=O)N2CCCCC2)NC(=O)[C@H](Cc2ccccc2)N(C)C(=O)[C@H]([C@@H](C)O)NC(=O)[C@H](CC(C)C)N(C)C1=O` [Compound 4] ([dA][NMeL][NMeA][NMeF]S(tBu)[NMeF]L[NMeL]T[NMeF]D-Piperidide; lactam N-11), the Solubility came to 1 µg/mL (≈ 0.697 µM). Regarding `CC[C@H](C)[C@@H]1NC(=O)[C@H](CC(C)C)N(C)C(=O)C[C@@H](C(=O)N2CCCCC2)N(C)C(=O)[C@H](C2CCCC2)N(C)C(=O)C2(CCCC2)NC(=O)[C@@H]2CCCN2C(=O)[C@H](CCc2ccc(C(F)(F)F)c(Cl)c2)NC(=O)CN(C)C(=O)[C@H](CC2CCCCC2)N(C)C(=O)[C@@H]2CCN2C(=O)[C@H](C)N(C)C1=O` [Compound 6] ([NMeL]I[NMeA][Aze][NMeCha][Sar][hPhe(3-Cl-4-CF3)]P[Ac5c][NMeGly(cPent)][NMeD]-Piperidide; lactam N-11), the Solubility is reported as 1 µg/mL (≈ 0.688 µM). `CCO[C@@H]1C[C@H]2C(=O)NC3(CCCC3)C(=O)N(C)[C@@H](C3CCCC3)C(=O)N(C)[C@H](C(=O)N(C)C)CC(=O)N(C)[C@@H](CC(C)C)C(=O)N[C@@H]([C@@H](C)CC)C(=O)N(C)[C@@H](C)C(=O)N3CC[C@H]3C(=O)N(C)[C@@H](CC3CCCCC3)C(=O)N(C)CC(=O)N[C@@H](CCc3cc(F)c(C(F)(F)F)c(F)c3)C(=O)N2C1` [Compound 8] ([NMeL]I[NMeA][Aze][NMeCha][Sar][hPhe(3,5-F2-4-CF3)][Hyp](Et)[Ac5c][NMeGly(cPent)][NMeD]-NMe2; lactam N-11): the Solubility was 5 µg/mL (≈ 3.43 µM).
